Structures are written as SMILES. Where a name gives a salt, the structure may show the parent alone.

For this experiment, the target named is T1, Full length human TNNI3K (hTNNI3K) (Homo sapiens, UniProt Q59H18).
T1 construct: His-MBP-TEV-Full length human TNNI3K (hTNNI3K); His (N); MBP (N); TEV cleavage site (N); made in house; host or cells: baculovirus system (printed 'Baculokinase system')
T1 sequence (Q59H18 1-835): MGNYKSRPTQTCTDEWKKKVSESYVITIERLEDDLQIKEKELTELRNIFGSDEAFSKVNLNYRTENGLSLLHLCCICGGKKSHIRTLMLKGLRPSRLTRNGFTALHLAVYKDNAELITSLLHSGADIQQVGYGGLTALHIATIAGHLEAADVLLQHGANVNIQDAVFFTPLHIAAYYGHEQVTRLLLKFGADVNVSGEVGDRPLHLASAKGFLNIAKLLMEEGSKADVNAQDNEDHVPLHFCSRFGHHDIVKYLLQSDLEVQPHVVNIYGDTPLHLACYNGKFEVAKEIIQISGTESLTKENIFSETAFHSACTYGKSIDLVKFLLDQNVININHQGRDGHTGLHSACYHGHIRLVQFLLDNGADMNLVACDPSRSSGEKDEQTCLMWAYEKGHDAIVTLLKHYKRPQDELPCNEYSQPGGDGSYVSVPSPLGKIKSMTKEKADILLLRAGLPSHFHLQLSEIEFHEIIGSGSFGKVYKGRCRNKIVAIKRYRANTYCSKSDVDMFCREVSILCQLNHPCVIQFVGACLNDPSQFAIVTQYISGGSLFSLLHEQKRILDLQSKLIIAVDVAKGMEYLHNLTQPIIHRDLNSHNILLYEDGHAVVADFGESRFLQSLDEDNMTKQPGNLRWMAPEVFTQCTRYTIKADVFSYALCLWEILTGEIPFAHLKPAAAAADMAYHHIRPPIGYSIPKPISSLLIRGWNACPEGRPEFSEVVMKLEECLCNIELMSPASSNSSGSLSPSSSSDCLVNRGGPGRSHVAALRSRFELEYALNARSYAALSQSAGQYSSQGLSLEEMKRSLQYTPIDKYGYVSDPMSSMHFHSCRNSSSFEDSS
Kind of experiment: Fluorescent polarization assay of compound inhibition on hTNNI3K ATP binding (Biological Assay Method I). Particulars: displacement of fluorescent ligand from hTNNI3K ATP binding pocket; mean of a minimum of 2 experiments; read-out: pXC50 (the source's name) (converted). An excerpt: Materials: His-MBP-TEV-Full length human TNNI3K (hTNNI3K) was expressed in Baculokinase system and purified from amylase affinity column followed by Superdex200. The fluorescent ligand 5-({[2-({[3-({4-[(5-hydroxy-2-methylphenyl)amino]-2-pyrimidinyl}amino)phenyl]carbonyl}amino)ethyl]amino}carbonyl)-2-(6-hydroxy-3-oxo-3H-xanthen-9-yl)benzoic acid was used. The preparation of this fluorescent ligand is disclosed in U.S. Provisional Patent Application No. 61/237,815 filed Aug. 28, 2009, the disclosure of which is incorporated by reference herein. The other buffer components, including MgCl2 (Catalog Number M1028), Bis-Tris (Catalog Number B7535), DTT (Catalog Number D9779) and Chaps (Catalog Number C3023) were purchased from Sigma-Aldrich.
Biological Assay Method I:
A fluorescent polarization assay was used to determine does response of compound inhibition on hTNNI3K ATP binding.
Solution 1: Ten (10) mL of a 5 nM 5-({[2-({[3-({4-[(5-hydroxy-2-methylphenyl)amino]-2-pyrimidinyl}amino)phenyl]carbonyl}amino)ethyl]amino}carbonyl)-2-(6-hydroxy-3-oxo-3H-xanthen-9-yl)benzoic acid solution (Solution 1) was prepared by mixing 5 μL of 1M DTT and 80 μL of 10% (w/v) Chaps and 5 μL of a 10 μM 5-({[2-({[3-({4-[(5-hydroxy-2-methylphenyl)amino]-2-pyrimidinyl}amino)phenyl]carbonyl}amino) ethyl]amino}carbonyl)-2-(6-hydroxy-3-oxo-3H-xanthen-9-yl)benzoic acid stock solution into 9910 μL buffer (20 mM Tris, 15 mM MgCl2, pH 7.5). (Stock solution: 10 μM solution of 5-({[2-({[3-({4-[(5-hydroxy-2-methylphenyl)amino]-2-pyrimidinyl}amino)phenyl]carbonyl}amino)ethyl]amino}carbonyl)-2-(6-hydroxy-3-oxo-3H-xanthen-9-yl)benzoic acid in 100% DMSO)
Solution 2 was formed by mixing 53.8 μL of 2.6 μM hTNNI3K with a 6946.2 μL aliquot of Solution 1 (the above 5-({[2-({[3-({4-[(5-hydroxy-2-methylphenyl)amino]-2-pyrimidinyl}amino)phenyl]carbonyl}amino)ethyl]amino}carbonyl)-2-(6-hydroxy-3-oxo-3H-xanthen-9-yl)benzoic acid solution) to make up a 7 mL of mixture of hTNNI3K and 5-({[2-({[3-({4-[(5-hydroxy-2-methylphenyl)amino]-2-pyrimidinyl}amino)phenyl]carbonyl}amino)ethyl]amino}carbonyl)-2-(6-hydroxy-3-oxo-3H-xanthen-9-yl)benzoic acid (Solution 2).
Fifty (50) nL of inhibitors in DMSO (or DMSO controls) were stamped into a 384-well low volume Greiner black plate, followed by addition of 5 μL of Solution 1 to column 18 and 5 μL Solution 2 to columns 1-17 and 19-24 of the plate. The plate was then spun at 500 rpm for 30 seconds and incubated at room temperature for 60 minutes. After that, the fluorescent polarization was measured on Analyst (ex/em: 485/530 nm, Dichroic: 505). For dose response experiments, normalized data were fit by ABASE/XC50 and pXC50=(log((b−y)/(y−a)))/d−log(x), where x is the compound concentration and y is the % activity at specified compound concentration, a is the minimum % activity, b is the maximum % activity, and d is the Hill slope.
The pXC50s are averaged to determine a mean value, for a minimum of 2 experiments.
As to `CNS(=O)(=O)c1ccc(N2CCC[C@@H]2C(F)(F)F)c(Nc2ncnc3cc(OC)c(OC)cc23)c1` [Example 21, 3-{[6,7-bis(methyloxy)-4-quinazolinyl]amino}-N-methyl-4-[(2R)-2-(trifluoromethyl)-1-pyrrolidinyl] benzenesulfonamide trifluoroacetate], the IC50 is 0.001 to 0.01 µM.

Consider `CNS(=O)(=O)c1ccc(N2CCC[C@@H]2C(F)(F)F)c(Nc2ncnc3ccc(Cl)cc23)c1` [Example 22, 3-[(6-chloro-4-quinazolinyl)amino]-N-methyl-4-[(2R)-2-(trifluoromethyl)-1-pyrrolidinyl] benzenesulfonamide trifluoroacetate], for which the IC50 is 0.01 to 0.1 µM.

On to `CNS(=O)(=O)c1ccc(N2CCCCC2)c(Nc2ncnc3cc(OC)c(OC)cc23)c1` [Example 25, 3-{[6,7-bis(methyloxy)-4-quinazolinyl]amino}-N-methyl-4-(1-piperidinyl) benzenesulfonamide trifluoroacetate], for which the IC50 was 0.001 to 0.01 µM.

For the compound `CNS(=O)(=O)c1ccc(N2CCCCC2)c(Nc2ncnc3ccc(Cl)cc23)c1` [Example 26, 3-[(6-chloro-4-quinazolinyl)amino]-N-methyl-4-(1-piperidinyl) benzenesulfonamide trifluoroacetate], the IC50 is 0.01 to 0.1 µM.

Take `CNS(=O)(=O)c1ccc(N2C(C)CCC2C)c(Nc2ncnc3cc(OC)c(OC)cc23)c1` (stereo not drawn) [Example 27, 3-{[6,7-bis(methyloxy)-4-quinazolinyl]amino}-4-(2,5-dimethyl-1-pyrrolidinyl)-N-methylbenzenesulfonamide trifluoroacetate]: the IC50 was 0.001 to 0.01 µM.

Regarding `CNS(=O)(=O)c1ccc(N2C(C)CCC2C)c(Nc2ncnc3ccc(Cl)cc23)c1` (stereo not drawn) [Example 28, 3-[(6-chloro-4-quinazolinyl)amino]-4-(2,5-dimethyl-1-pyrrolidinyl)-N-methylbenzenesulfonamide trifluoroacetate], the IC50 was 0.01 to 0.1 µM.

As to `CNS(=O)(=O)c1cccc(Nc2ncnc3cc(OC)cc(OC)c23)c1` [Example 30, 3-{[5,7-bis(methyloxy)-4-quinazolinyl]amino}-N-methylbenzenesulfonamide hydrochloride], the IC50 was 0.01 to 0.1 µM.

Regarding `CNS(=O)(=O)c1ccc(OCC(F)(F)F)c(Nc2ncnc3cc(OC)cc(OC)c23)c1` [Example 31, 3-{[5,7-bis(methyloxy)-4-quinazolinyl]amino}-N-methyl-4-[(2,2,2-trifluoroethyl)oxy]benzenesulfonamide hydrochloride], the IC50 was 0.001 to 0.01 µM.

On to `CNS(=O)(=O)c1ccc(N(C)C)c(Nc2ncnc3cc(OC)cc(OC)c23)c1` [Example 32, 3-{[5,7-bis(methyloxy)-4-quinazolinyl]amino}-4-(dimethylamino)-N-methylbenzenesulfonamide], for which the IC50 was 0.001 to 0.01 µM.

For `CNS(=O)(=O)c1ccc(N(C)CC(F)(F)F)c(Nc2ncnc3cc(OC)c(OC)cc23)c1` [Example 35, 3-{[6,7-bis(methyloxy)-4-quinazolinyl]amino}-N-methyl-4-[methyl(2,2,2-trifluoroethyl)amino] benzenesulfonamide trifluoroacetate], the IC50 was 0.001 to 0.01 µM.

For the compound `CNS(=O)(=O)c1ccc(N(C)CC(F)(F)F)c(Nc2ncnc3cc(OC)cc(OC)c23)c1` [Example 36, 3-{[5,7-bis(methyloxy)-4-quinazolinyl]amino}-N-methyl-4-[methyl(2,2,2-trifluoroethyl)amino] benzenesulfonamide hydrochloride], the IC50 is 0.01 to 0.1 µM.

Regarding `CNS(=O)(=O)c1ccc(OC)c(Nc2ncnc3cc(OC)cc(OC)c23)c1` [Example 37, 3-{[5,7-bis(methyloxy)-4-quinazolinyl]amino}-N-methyl-4-(methyloxy) benzenesulfonamide hydrochloride], the IC50 is 0.001 to 0.01 µM.

In the case of `CNS(=O)(=O)c1ccc(F)c(Nc2ncnc3cc(OC)cc(OC)c23)c1` [Example 38, 3-{[5,7-bis(methyloxy)-4-quinazolinyl]amino}-4-fluoro-N-methylbenzenesulfonamide hydrochloride], the IC50 is 0.01 to 0.1 µM.

As for `CNS(=O)(=O)c1ccc(Cl)c(Nc2ncnc3cc(OC)cc(OC)c23)c1` [Example 39, 3-{[5,7-bis(methyloxy)-4-quinazolinyl]amino}-4-chloro-N-methylbenzenesulfonamide hydrochloride], the IC50 is 0.01 to 0.1 µM.

On to `CNS(=O)(=O)c1ccc(N2CCOCC2)c(Nc2ncnc3cc(OC)cc(OC)c23)c1` [Example 40, 3-{[5,7-bis(methyloxy)-4-quinazolinyl]amino}-N-methyl-4-(4-morpholinyl) benzenesulfonamide hydrochloride], for which the IC50 is 0.01 to 0.1 µM.

For `CCOc1cc2c(Nc3cc(S(=O)(=O)NC)ccc3OCC(F)(F)F)ncnc2cc1OC` [Example 42, 3-{[6-(ethyloxy)-7-(methyloxy)-4-quinazolinyl]amino}-N-methyl-4-[(2,2,2-trifluoroethyl)oxy] benzenesulfonamide hydrochloride], the IC50 was 0.01 to 0.1 µM.

For the compound `CNS(=O)(=O)c1ccc(OCC(F)(F)F)c(Nc2ncnc3cc(OC)c(OC(C)C)cc23)c1` [Example 44, N-methyl-3-{[6-[(1-methylethyl)oxy]-7-(methyloxy)-4-quinazolinyl]amino}-4-[(2,2,2-trifluoroethyl)oxy] benzenesulfonamide hydrochloride], the IC50 is 0.01 to 0.1 µM.

For the compound `CNS(=O)(=O)c1ccc(OCC(F)(F)F)c(Nc2ncnc3cc(OCCCCl)ccc23)c1` [Example 45, 3-({7-[(3-chloropropyl)oxy]-4-quinazolinyl}amino)-N-methyl-4-[(2,2,2-trifluoroethyl)oxy] benzenesulfonamide], the IC50 is 0.01 to 0.1 µM.

For `CCOc1cc(OC)cc2ncnc(Nc3cc(S(=O)(=O)NC)ccc3OCC(F)(F)F)c12` [Example 46, 3-{[5-(ethyloxy)-7-(methyloxy)-4-quinazolinyl]amino}-N-methyl-4-[(2,2,2-trifluoroethyl)oxy] benzenesulfonamide], the IC50 was 0.001 to 0.01 µM.

On to `CNS(=O)(=O)c1ccc(OCC(F)(F)F)c(Nc2ncnc3cc(OC)cc(OC(C)C)c23)c1` [Example 47, N-methyl-3-{[5-[(1-methylethyl)oxy]-7-(methyloxy)-4-quinazolinyl]amino}-4-[(2,2,2-trifluoroethyl)oxy] benzenesulfonamide], for which the IC50 was 0.01 to 0.1 µM.

As for `CNS(=O)(=O)c1ccc(OCC(F)(F)F)c(Nc2ncnc3cc(OC)c(OC)c(OC)c23)c1` [Example 48, N-methyl-4-[(2,2,2-trifluoroethyl)oxy]-3-{[5,6,7-tris(methyloxy)-4-quinazolinyl]amino}benzene sulfonamide hydrochloride], the IC50 was 0.001 to 0.01 µM.
